Assay results: PMC7492691 (2020)

Tests used:
[1] = test system: poly(dAdT)2 (DNA, polymer) AT; test: ITC, two sets of sites fit; details: Na+ (sodium cacodylate, I = 0.05 M); pH 5, 25 °C; site 1 of 2; polynucleotide concentration in phosphates; per base
[2] = test system: poly(rA)–poly(rU) (RNA, polymer) A/U; test: ITC, single set of sites fit; details: Na+ (sodium cacodylate, I = 0.05 M); pH 5, 25 °C; polynucleotide concentration in phosphates; per base
[3] = test system: poly(dAdT)2 (DNA, polymer) AT; test: UV thermal denaturation, 260 nm; details: Na+ (sodium cacodylate, I = 0.05 M); pH 5; r = [4]/[polynucleotide] = 0.1; per base
[4] = test system: poly(dAdT)2 (DNA, polymer) AT; test: UV-vis titration, Scatchard fit; details: Na+ (sodium cacodylate, I = 0.05 M); pH 5, 25 °C; n fixed at 0.2; polynucleotide concentration in phosphates; per base
[5] = test system: poly(dGdC)2 (DNA, polymer) GC; test: UV-vis titration, Scatchard fit; details: Na+ (sodium cacodylate, I = 0.05 M); pH 5, 25 °C; n fixed at 0.2; polynucleotide concentration in phosphates; per base
[6] = test system: poly(dA)–poly(dT) (DNA, polymer) A/T; test: UV thermal denaturation, 260 nm; details: Na+ (sodium cacodylate, I = 0.05 M); pH 5; r = [4]/[polynucleotide] = 0.1; per base
[7] = test system: poly(dA)–poly(dT) (DNA, polymer) A/T; test: UV-vis titration, Scatchard fit; details: Na+ (sodium cacodylate, I = 0.05 M); pH 5, 25 °C; n fixed at 0.2; polynucleotide concentration in phosphates; per base
[8] = test system: poly(rA)–poly(rU) (RNA, polymer) A/U; test: UV thermal denaturation, 260 nm; details: Na+ (sodium cacodylate, I = 0.05 M); pH 5; r = [4]/[polynucleotide] = 0.2; per base
[9] = test system: poly(rA)–poly(rU) (RNA, polymer) A/U; test: UV-vis titration, Scatchard fit; details: Na+ (sodium cacodylate, I = 0.05 M); pH 7, 25 °C; n fixed at 0.2; concentration in phosphates; log Ka 6.0 at pH 5; per base

Compound: N=C(N)NC(=O)c1ccc(C(=O)NCCCC[C@H](N)C(=O)NCCN2C(=O)c3ccc4c5c(ccc(c35)C2=O)C(=O)N(CCNC(=O)[C@@H](N)CCCCNC(=O)c2ccc(C(=O)NC(=N)N)[nH]2)C4=O)[nH]1
- log Ka1 [1]: 6.7
- log Ka1 [2]: 6.9
- ∆Tm [3]: 10.0 ± 0.5 °C
- log Ka [4]: 5.8
- log Ka [5]: 7.2
- ∆Tm [6]: 10.5 ± 0.5 °C
- log Ka [7]: 6.4
- ∆Tm [8]: 6.8 ± 0.5 °C
- log Ka [9]: 4.5
